Here are results for two compounds from patent publication US20080146555A1, “Uses of Kinase Inhibitors and Compositions Thereof” (GPC Biotech, Inc, priority 2004, published 2008).

Experiment [1] deals with T1, AMPK.
T1 construct: purified from rat-human # = U06454
The experiment is described as follows: AMPK kinase assay. In kind it is biochemical, rat. How it is done:
• 1. AMPK Reaction Buffer: 20 mM HEPES-NaOH, pH 7.0, 0.4 mM dithiothreitol, 0.01% Brij-35, with or without 300 μM AMP. • 2. SAMS Substrate Peptide (Catalog #12-355): Use 7 μl per reaction for final assay concentration of 100 μM. • 3. AMP-Activated Protein Kinase: Dilute enzyme to 2-10 mU/μl in AMPK Reaction Buffer with or without 300 μM AMP. AMP can be purchased from Sigma-Aldrich, Catalog #A1752. • 4. [γ-^32P]ATP: Stock 1 mCi/100 μl (3000 Ci/mmol, obtained from PerkinElmer, Cat. # BLU002A). Make 10 μl aliquots (100 μCi/vial). […]
• NOTE: Negative controls should be run with all reagents containing no AMP. • 1. Add 13 μl of Reaction Buffer per assay. • 2. Add 7 μl of SAMS substrate peptide [100 μM final assay concentration]. • 3. Add 10 μl of AMP-Activated Protein Kinase [20-100 mU]. • 4. Add 10 μl of the diluted [^32P]ATP mixture. • 5. Incubate for 15 minutes at 30° C. in a shaking incubator. • 6. Spot 35 μl onto the center of a 2 cm×2 cm P81 paper square. • 7. Wash the assay squares three times with 0.75% phosphoric acid for 5 minutes. • 8. Wash the assay squares once with acetone for 5 minutes. • 9. Transfer the assay squares to vial and add 5 ml scintillation cocktail. • 10. Read in scintillation counter. Compare cpm of enzyme samples to cpm of control samples that contain no enzyme (background control).

The target in experiment [2] is panel of Tyr kinases. The experiment is described as follows: Kinase panel, Tyr kinases (average). In kind it is biochemical. To be noted: average over panel; read-out: average IC50 among Tyr kinases.
Experiment [3] relates to 1A9-PTX10. Nature of the experiment: SRB cytotoxicity, tubulin mutated paclitaxel-resistant cells. To be noted: for IC50: Homo sapiens, 1A9/ptx-10, 72 h, SRB; for RR (relative resistance) 1A9-PTX10 vs 1A9: ratio of mean IC50 resistant/sensitive. In kind it is cell-based, human. The procedure: In these experiments, the P-glycoprotein expressing NCI-Adr resistant subline (Vickers et al., 1989. Mol Endocrinology 3 (1):157-164) was used. […] Briefly, cells were plated in 96 well dishes 24 hours prior to compound addition. Where noted, they were exposed to verapamil for 4 hours prior to compound addition and then throughout the treatment period (72 hours). The assay was terminated with the addition of cold TCA to a final concentration of 10% and the plates were incubated for one hour at 4° C. The plates were then washed 5 times with water and 100 μl of a Sulforhodamine B solution (4%) was added to each well. The plate was then incubated for 10 minutes at room temperature before removal of unbound dye by washing with 1% acetic acid.
The tubulin mutated, paclitaxel-resistant human ovarian carcinoma cell line 1A9-PTX10 and its parental paclitaxel-sensitive cell line 1A9 were derived from the A2780 human ovarian carcinoma cell line (J Biol Chem (1997) 272, 17118-17124).

In experiment [4] the target is Cdk2 (Homo sapiens, UniProt P24941). The experiment is described as follows: Cdk2 inhibition. In kind it is biochemical. An excerpt:
Further inhibition results for subject compounds of the invention against other CDKs and further kinases are shown in Table 5, Table II and described in Example 6.
Table 3, Table 4, Table 5 and Table II show the results obtained for inhibition of a broad range of such kinases for subject compounds of the invention.

Experiment [5] deals with T2, c-Src (Homo sapiens, UniProt P12931).
T2 construct: purchased Upstate 14-326
Nature of the experiment: c-Src kinase assay. In kind it is biochemical. The procedure:
• 1. Src Kinase Reaction Buffer (SrcRB), Catalog #20-121: 100 mM Tris-HCl, pH 7.2, 125 mM MgCl2, 25 mM MnCl2, 2 mM EGTA, 0.25 mM sodium ortovanadate, 2 mM dithiothreitol. • 2. [γ-^32P]ATP: Stock 1 mCi/100 μl (3000 Ci/mmol, obtained from DuPont-NEN). Make 10 μl aliquots (100 μCi/vial). Before starting the assay dilute an aliquot to 1 μCi/μl with 90 μl of 500 μM unlabeled ATP containing 75 mM MnCl2 20 mM MOPS, pH 7.2, 25 mM β-glycerophosphate, 5 mM EGTA, 1 mM Na3VO4, 1 mM dithiothreitol. • 3. Src Kinase Substrate Peptide (Catalog #12-140): Use a 0.6-1.5 mM stock. Rehydrate 1 mg peptide with […] distilled water or SrcRB for a 1.5 mM stock or with 998 μl for a 0.6 mM stock. • 4. Src, active: Use 20-80 Units per assay point. Dilute as required with SrcRB.
• 1. Add 10 μl of SrcRB into a microfage tube. • 2. Add 10 μl Src Kinase substrate peptide (93-375 μM/assay). • 3. Add 4-16 μl of Src, active (20-80 Units/assay). • 4. Add 10 μl of the diluted [γ-^32P]ATP. • 5. Incubate for 10 minutes at 30° C. • 6. Add 20 μl of 40% TCA and incubate for 5 minutes at room temperature. • 7. Transfer 25 μl to the center of a 2 cm×2 cm P81 paper square. • 8. Wash the assay squares five times for 5 minutes each with 0.75% phosphoric acid. • 9. Wash the assay squares once with acetone for 5 minutes. • 10. Transfer the assay squares to a scintillation vial and add 5 ml scintillation cocktail. • 11. Read in scintillation counter. Compare cpm of enzyme samples to cpm of control samples that contain no enzyme (background control).

Setting [6] is: enzyme purified from rat, read-out: PRKAA2 (AMPK) Inhibition (IC50).
Where [7] appears, read: read-out: SRC Inhibition (IC50).

Where “and” joins values, the source holds several entries; their conditions need not be identical. Equal entries are not always repeated. Structures can show the parent of a compound that is named as a salt. Where two headings read alike, the source gives them in different places. Where only a bound is given, the exact number is not on record here.

T2 sequence (P12931 whole entry): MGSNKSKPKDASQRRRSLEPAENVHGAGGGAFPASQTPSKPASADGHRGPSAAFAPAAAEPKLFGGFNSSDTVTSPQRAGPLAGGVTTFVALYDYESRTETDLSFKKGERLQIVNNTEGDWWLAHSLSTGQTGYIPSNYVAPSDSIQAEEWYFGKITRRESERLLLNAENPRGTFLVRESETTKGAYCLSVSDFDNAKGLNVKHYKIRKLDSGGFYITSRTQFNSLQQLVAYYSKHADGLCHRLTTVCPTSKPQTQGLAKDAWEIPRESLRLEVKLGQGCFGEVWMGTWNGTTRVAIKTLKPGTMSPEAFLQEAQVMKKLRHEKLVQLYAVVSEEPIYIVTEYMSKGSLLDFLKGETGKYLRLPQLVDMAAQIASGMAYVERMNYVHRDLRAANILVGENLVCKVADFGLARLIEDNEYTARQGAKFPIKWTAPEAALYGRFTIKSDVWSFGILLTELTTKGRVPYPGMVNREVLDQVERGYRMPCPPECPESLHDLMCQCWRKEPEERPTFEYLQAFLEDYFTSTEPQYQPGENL

What is called IC50 is the concentration that inhibits the measured activity by half. As to `COCCN1CCN(Cc2ccc(-c3n[nH]c4c3C(=O)c3c(NC(=O)NN5CCOCC5)cccc3-4)cc2)CC1` [Compound B16, N-[3-(4-{[4-(2-methoxyethyl)piperazinyl]methyl}phenyl)-4-oxoindeno[2,3-d]pyrazol-5-yl](morpholin-4-ylamino)carboxamide dihydrochloride], the IC50 in experiment [1] (setting [6]) is less than 50 nM; in experiment [1] (kinase panel, 10 μM ATP, read-out: AMPK IC50), less than 100 nM; in experiment [2], approximately 55 nM; in experiment [3], 25 nM; in experiment [4], less than 5 nM; in experiment [5] (kinase panel, 10 μM ATP, read-out: c-Src IC50), less than 100 nM. The IC50 in experiment [5] (setting [7]) is less than 50 nM. Also, in experiment [3], the “RR (relative resistance) 1A9-PTX10 vs 1A9” value is recorded as 2.3.
With `CC(C)N1CCN(C(=O)COc2ccc(-c3n[nH]c4c3C(=O)c3c(NC(=O)NN5CCOCC5)cccc3-4)cc2)CC1` [Compound A37], the IC50 is less than 100 nM in experiment [1] (setting [6]); ~37 nM and 35.5 nM in experiment [2]; 44.3 nM in experiment [3]; less than 50 nM in experiment [4]; less than 50 nM in experiment [5] (setting [7]). In addition, the “RR (relative resistance) 1A9-PTX10 vs 1A9” value in experiment [3] is on record as 3.3.
